Results as given in the kinase profiling compilation of Christmann-Franck et al. (2016).

Columns and labels:
Test in all cases: KINOMEscan competition binding
GSK3A (human) = GSK3A (human) (UniProt P49840); settings: compound 1.0 µM
CHEK1 (human) = CHEK1 (human) (UniProt O14757); settings: compound 1.0 µM
RPS6KA2 KD1 (human) = RPS6KA2 KD1 (human) (UniProt Q15349); settings: compound 1.0 µM
MYLK4 (human) = MYLK4 (human) (UniProt Q86YV6); settings: compound 1.0 µM
TYRO3 (human) = TYRO3 (human) (UniProt Q06418); settings: compound 1.0 µM
CaMK1 (human) = CaMK1 (human) (UniProt Q14012); settings: compound 1.0 µM
PIK3C2G (human) = PIK3C2G (human) (UniProt O75747); settings: compound 1.0 µM
IKBKE (human) = IKBKE (human) (UniProt Q14164); settings: compound 1.0 µM
NEK5 (human) = NEK5 (human) (UniProt Q6P3R8); settings: compound 1.0 µM
NEK5 (human), sequence (Q6P3R8 whole entry, looked up): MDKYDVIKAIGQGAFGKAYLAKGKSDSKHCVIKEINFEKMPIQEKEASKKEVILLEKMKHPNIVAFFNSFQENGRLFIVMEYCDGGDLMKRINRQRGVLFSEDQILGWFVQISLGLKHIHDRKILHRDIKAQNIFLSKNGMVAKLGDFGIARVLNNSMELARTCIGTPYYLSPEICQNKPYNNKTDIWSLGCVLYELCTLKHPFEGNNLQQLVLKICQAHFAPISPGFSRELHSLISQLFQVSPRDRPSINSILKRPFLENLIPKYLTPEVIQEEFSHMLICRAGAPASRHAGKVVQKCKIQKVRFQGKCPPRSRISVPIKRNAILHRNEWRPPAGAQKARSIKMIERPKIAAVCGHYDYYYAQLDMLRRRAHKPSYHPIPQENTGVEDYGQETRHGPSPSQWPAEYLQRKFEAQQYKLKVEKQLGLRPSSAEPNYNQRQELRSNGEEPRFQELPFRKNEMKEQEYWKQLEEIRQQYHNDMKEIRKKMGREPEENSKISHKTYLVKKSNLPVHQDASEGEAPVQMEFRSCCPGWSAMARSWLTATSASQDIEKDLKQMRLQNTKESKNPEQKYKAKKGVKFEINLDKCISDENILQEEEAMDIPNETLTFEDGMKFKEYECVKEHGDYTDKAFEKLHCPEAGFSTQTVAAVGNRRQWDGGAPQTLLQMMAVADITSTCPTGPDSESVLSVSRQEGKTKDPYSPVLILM

ADCK4 (human) = ADCK4 (human) (UniProt Q96D53); settings: compound 1.0 µM
CDKL3 (human) = CDKL3 (human) (UniProt Q8IVW4); settings: compound 1.0 µM
[1] = tested on: ABL1 (human), P00519 [E255K]; settings: compound 1.0 µM
PRKG2 (human) = PRKG2 (human) (UniProt Q13237); settings: compound 1.0 µM
RPS6KA1 KD1 (human) = RPS6KA1 KD1 (human) (UniProt Q15418); settings: compound 1.0 µM
ULK2 (human) = ULK2 (human) (UniProt Q8IYT8); settings: compound 1.0 µM
MAP3K3 (human) = MAP3K3 (human) (UniProt Q99759); settings: compound 1.0 µM
IRAK1 (human) = IRAK1 (human) (UniProt P51617); settings: compound 1.0 µM
IRAK1 (human), sequence (P51617 whole entry, looked up): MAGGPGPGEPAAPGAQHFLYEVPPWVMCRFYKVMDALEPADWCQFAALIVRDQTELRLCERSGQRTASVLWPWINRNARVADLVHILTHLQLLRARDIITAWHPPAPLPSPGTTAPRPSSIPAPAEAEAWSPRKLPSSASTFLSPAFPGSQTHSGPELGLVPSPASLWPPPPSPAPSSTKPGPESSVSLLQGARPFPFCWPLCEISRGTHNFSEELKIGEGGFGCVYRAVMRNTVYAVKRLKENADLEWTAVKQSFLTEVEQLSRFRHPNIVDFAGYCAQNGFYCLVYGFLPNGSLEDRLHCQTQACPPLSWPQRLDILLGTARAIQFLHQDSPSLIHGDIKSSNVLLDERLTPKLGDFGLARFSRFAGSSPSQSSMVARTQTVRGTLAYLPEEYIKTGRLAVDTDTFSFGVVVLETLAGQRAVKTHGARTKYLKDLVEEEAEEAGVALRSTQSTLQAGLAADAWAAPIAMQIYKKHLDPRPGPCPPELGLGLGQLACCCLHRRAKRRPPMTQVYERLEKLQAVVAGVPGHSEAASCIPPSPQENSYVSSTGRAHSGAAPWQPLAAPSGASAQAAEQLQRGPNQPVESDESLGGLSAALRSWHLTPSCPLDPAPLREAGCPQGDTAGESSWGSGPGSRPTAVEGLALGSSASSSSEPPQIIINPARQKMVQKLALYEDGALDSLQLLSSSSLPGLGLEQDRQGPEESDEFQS

STK35 (human) = STK35 (human) (UniProt Q8TDR2); settings: compound 1.0 µM
RPS6KA3 KD1 (human) = RPS6KA3 KD1 (human) (UniProt P51812); settings: compound 1.0 µM
IRAK4 (human) = IRAK4 (human) (UniProt Q9NWZ3); settings: compound 1.0 µM
[2] = tested on: LRRK2 (human), Q5S007 [G2019S]; settings: compound 1.0 µM
FLT1 (human) = FLT1 (human) (UniProt P17948); settings: compound 1.0 µM
[3] = tested on: FGFR3 (human), P22607 [G697C]; settings: compound 1.0 µM
CASK (human) = CASK (human) (UniProt O14936); settings: compound 1.0 µM
FGR (human) = FGR (human) (UniProt P09769); settings: compound 1.0 µM
AURKC (human) = AURKC (human) (UniProt Q9UQB9); settings: compound 1.0 µM
EPHA4 (human) = EPHA4 (human) (UniProt P54764); settings: compound 1.0 µM
KDR (human) = KDR (human) (UniProt P35968); settings: compound 1.0 µM
CSNK1G3 (human) = CSNK1G3 (human) (UniProt Q9Y6M4); settings: compound 1.0 µM
CSNK1G3 (human), sequence (Q9Y6M4 whole entry, looked up): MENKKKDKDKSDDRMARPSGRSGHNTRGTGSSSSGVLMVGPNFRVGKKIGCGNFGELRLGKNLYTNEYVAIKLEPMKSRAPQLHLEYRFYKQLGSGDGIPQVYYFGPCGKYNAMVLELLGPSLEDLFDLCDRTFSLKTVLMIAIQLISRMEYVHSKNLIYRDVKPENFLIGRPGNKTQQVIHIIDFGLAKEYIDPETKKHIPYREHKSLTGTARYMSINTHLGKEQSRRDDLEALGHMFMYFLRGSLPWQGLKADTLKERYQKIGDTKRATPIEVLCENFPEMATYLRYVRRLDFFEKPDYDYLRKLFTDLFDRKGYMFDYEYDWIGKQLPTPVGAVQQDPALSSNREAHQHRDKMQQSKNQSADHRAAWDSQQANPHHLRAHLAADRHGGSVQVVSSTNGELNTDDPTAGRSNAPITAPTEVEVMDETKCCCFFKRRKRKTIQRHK

PRKCQ (human) = PRKCQ (human) (UniProt Q04759); settings: compound 1.0 µM
ICK (human) = ICK (human) (UniProt Q9UPZ9)
ICK (human), sequence (Q9UPZ9 whole entry, looked up): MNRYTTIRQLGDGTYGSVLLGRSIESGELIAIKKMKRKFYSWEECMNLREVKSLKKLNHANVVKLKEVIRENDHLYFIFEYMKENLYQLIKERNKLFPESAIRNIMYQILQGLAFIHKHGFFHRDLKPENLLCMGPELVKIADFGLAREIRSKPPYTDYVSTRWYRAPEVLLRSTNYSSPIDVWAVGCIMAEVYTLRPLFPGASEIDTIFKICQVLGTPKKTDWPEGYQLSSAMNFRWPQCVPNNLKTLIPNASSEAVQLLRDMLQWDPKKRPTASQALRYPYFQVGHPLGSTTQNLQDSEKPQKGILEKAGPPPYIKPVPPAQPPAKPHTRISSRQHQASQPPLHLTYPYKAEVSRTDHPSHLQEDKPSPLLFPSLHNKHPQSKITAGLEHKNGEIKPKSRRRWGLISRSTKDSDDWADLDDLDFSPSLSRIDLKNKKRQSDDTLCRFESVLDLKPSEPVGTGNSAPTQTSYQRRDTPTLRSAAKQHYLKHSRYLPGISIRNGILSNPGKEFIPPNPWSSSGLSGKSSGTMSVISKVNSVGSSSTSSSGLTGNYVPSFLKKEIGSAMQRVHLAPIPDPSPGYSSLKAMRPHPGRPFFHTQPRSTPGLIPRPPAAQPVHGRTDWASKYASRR

ITK (human) = ITK (human) (UniProt Q08881); settings: compound 1.0 µM
CSF1R (human) = CSF1R (human) (UniProt P07333); settings: compound 1.0 µM
RIPK2 (human) = RIPK2 (human) (UniProt O43353); settings: compound 1.0 µM
EPHA2 (human) = EPHA2 (human) (UniProt P29317); settings: compound 1.0 µM
LRRK2 (human) = LRRK2 (human) (UniProt Q5S007); settings: compound 1.0 µM
PDGFRB (human) = PDGFRB (human) (UniProt P09619); settings: compound 1.0 µM
PDGFRB (human), sequence (P09619 whole entry, looked up): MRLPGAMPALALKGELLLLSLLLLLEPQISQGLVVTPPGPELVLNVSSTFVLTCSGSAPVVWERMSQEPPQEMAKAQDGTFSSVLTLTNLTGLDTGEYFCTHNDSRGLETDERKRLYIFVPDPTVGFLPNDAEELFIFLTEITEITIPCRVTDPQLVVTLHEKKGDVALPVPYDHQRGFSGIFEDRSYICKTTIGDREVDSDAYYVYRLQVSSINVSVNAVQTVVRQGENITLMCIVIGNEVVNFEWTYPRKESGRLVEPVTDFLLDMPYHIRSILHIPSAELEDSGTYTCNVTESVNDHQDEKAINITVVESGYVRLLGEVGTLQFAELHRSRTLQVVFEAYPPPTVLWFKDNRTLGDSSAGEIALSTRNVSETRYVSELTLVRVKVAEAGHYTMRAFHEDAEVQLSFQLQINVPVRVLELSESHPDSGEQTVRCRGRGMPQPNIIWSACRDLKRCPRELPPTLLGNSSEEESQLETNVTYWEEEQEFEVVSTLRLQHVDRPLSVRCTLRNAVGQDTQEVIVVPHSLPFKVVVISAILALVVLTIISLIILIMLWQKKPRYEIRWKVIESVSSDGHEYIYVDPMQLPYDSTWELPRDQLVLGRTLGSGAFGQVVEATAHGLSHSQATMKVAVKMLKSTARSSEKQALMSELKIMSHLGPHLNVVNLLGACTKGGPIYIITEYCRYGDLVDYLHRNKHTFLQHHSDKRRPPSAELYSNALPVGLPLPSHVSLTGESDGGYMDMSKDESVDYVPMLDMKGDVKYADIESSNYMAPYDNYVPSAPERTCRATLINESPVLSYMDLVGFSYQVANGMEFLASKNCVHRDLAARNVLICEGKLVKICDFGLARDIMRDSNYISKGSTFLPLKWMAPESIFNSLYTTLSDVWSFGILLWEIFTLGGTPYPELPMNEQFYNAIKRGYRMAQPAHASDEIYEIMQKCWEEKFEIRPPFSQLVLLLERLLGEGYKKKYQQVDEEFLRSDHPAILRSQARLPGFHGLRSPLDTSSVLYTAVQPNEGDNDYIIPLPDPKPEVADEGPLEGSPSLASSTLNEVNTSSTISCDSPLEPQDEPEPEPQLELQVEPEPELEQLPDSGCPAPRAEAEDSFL

DAPK1 (human) = DAPK1 (human) (UniProt P53355); settings: compound 1.0 µM
STK17A (human) = STK17A (human) (UniProt Q9UEE5)
STK17A (human), sequence (Q9UEE5 whole entry, looked up): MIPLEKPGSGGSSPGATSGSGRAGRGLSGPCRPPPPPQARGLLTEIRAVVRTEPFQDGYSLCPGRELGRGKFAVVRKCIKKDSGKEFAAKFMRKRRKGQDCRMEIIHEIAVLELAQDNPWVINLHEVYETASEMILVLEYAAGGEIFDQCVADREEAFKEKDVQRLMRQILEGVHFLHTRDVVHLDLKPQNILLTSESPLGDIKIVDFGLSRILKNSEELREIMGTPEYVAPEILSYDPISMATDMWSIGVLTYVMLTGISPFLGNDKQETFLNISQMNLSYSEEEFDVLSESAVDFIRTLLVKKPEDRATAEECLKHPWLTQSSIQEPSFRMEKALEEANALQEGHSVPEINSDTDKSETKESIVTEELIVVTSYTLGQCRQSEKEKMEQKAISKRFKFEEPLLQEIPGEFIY

PKN2 (human) = PKN2 (human) (UniProt Q16513); settings: compound 1.0 µM
PKN2 (human), sequence (Q16513 whole entry, looked up): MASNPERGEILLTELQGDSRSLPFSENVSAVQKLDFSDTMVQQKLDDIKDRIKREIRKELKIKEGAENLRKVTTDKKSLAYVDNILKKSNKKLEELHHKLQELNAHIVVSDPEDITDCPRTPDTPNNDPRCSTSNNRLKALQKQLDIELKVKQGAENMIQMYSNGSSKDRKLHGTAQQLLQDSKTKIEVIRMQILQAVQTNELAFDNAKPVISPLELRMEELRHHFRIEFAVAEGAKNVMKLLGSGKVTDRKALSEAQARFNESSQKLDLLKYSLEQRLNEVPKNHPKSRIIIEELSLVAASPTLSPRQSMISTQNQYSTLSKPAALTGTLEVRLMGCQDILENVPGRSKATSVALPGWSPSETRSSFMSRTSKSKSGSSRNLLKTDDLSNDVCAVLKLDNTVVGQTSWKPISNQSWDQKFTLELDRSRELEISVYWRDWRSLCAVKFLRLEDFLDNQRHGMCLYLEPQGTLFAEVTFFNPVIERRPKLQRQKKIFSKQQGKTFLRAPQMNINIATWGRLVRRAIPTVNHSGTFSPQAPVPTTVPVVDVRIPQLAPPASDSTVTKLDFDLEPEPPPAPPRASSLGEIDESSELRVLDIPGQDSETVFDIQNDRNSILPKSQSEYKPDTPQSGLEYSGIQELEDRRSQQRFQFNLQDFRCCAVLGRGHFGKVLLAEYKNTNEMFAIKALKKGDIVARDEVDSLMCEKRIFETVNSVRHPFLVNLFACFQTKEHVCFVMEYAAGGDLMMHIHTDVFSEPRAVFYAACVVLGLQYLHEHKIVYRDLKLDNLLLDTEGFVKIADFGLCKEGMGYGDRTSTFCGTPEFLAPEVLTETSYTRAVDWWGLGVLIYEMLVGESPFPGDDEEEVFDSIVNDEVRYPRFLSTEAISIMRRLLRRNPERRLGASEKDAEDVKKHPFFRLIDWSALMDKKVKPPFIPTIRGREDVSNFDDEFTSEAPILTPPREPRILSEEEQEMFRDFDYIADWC

[4] = biological target: JAK1 JH1 catalytic (human) (UniProt P23458); settings: compound 1.0 µM
NEK3 (human) = NEK3 (human) (UniProt P51956); settings: compound 1.0 µM

CN(C)C/C=C/C(=O)Nc1cccc(C(=O)Nc2ccc(Nc3nccc(-c4cccnc4)n3)cc2)c1
kinase still bound, per cent of control (GSK3A (human)): 65%
kinase still bound, per cent of control (CHEK1 (human)): 100%
kinase still bound, per cent of control (RPS6KA2 KD1 (human)): 100%
kinase still bound, per cent of control (MYLK4 (human)): 34%
kinase still bound, per cent of control (TYRO3 (human)): 87%
kinase still bound, per cent of control (CaMK1 (human)): 100%
kinase still bound, per cent of control (PIK3C2G (human)): 100%
kinase still bound, per cent of control (IKBKE (human)): 98%
kinase still bound, per cent of control (NEK5 (human)): 7.8%
kinase still bound, per cent of control (ADCK4 (human)): 69%
kinase still bound, per cent of control (CDKL3 (human)): 41%
kinase still bound, per cent of control [1]: 43%
kinase still bound, per cent of control (PRKG2 (human)): 82%
kinase still bound, per cent of control (RPS6KA1 KD1 (human)): 100%
kinase still bound, per cent of control (ULK2 (human)): 86%
kinase still bound, per cent of control (MAP3K3 (human)): 77%
kinase still bound, per cent of control (IRAK1 (human)): 0.1%
kinase still bound, per cent of control (STK35 (human)): 67%
kinase still bound, per cent of control (RPS6KA3 KD1 (human)): 100%
kinase still bound, per cent of control (IRAK4 (human)): 100%
kinase still bound, per cent of control [2]: 51%
kinase still bound, per cent of control (FLT1 (human)): 75%
kinase still bound, per cent of control [3]: 100%
kinase still bound, per cent of control (CASK (human)): 100%
kinase still bound, per cent of control (FGR (human)): 69%
kinase still bound, per cent of control (AURKC (human)): 33%
kinase still bound, per cent of control (EPHA4 (human)): 94%
kinase still bound, per cent of control (KDR (human)): 100%
kinase still bound, per cent of control (CSNK1G3 (human)): 66%
kinase still bound, per cent of control (PRKCQ (human)): 100%
Kd (ICK (human)): 54 nM
kinase still bound, per cent of control (ICK (human); compound 1.0 µM): 3.4%
kinase still bound, per cent of control (ITK (human)): 85%
kinase still bound, per cent of control (CSF1R (human)): 52%
kinase still bound, per cent of control (RIPK2 (human)): 55%
kinase still bound, per cent of control (EPHA2 (human)): 86%
kinase still bound, per cent of control (LRRK2 (human)): 63%
kinase still bound, per cent of control (PDGFRB (human)): 6%
kinase still bound, per cent of control (DAPK1 (human)): 63%
Kd (STK17A (human)): 100 nM
kinase still bound, per cent of control (STK17A (human); compound 1.0 µM): 1.3%
kinase still bound, per cent of control (PKN2 (human)): 33%
kinase still bound, per cent of control [4]: 100%
kinase still bound, per cent of control (NEK3 (human)): 6.8%
